Target: T1, CatSper channel (CatSper1) (Mus musculus, UniProt A2ARP9+Q80W99+Q8BVN3+Q91ZR5)
T1 construct: native channel in mouse sperm; with CatSper2, CatSper3, CatSper4
Assay: whole-sperm patch clamp of native CatSper currents; also SBFI and fura-2 photometry (abstract IC50 […] by optical assay)
Type: cell-based

T1 sequence (Q91ZR5 whole entry): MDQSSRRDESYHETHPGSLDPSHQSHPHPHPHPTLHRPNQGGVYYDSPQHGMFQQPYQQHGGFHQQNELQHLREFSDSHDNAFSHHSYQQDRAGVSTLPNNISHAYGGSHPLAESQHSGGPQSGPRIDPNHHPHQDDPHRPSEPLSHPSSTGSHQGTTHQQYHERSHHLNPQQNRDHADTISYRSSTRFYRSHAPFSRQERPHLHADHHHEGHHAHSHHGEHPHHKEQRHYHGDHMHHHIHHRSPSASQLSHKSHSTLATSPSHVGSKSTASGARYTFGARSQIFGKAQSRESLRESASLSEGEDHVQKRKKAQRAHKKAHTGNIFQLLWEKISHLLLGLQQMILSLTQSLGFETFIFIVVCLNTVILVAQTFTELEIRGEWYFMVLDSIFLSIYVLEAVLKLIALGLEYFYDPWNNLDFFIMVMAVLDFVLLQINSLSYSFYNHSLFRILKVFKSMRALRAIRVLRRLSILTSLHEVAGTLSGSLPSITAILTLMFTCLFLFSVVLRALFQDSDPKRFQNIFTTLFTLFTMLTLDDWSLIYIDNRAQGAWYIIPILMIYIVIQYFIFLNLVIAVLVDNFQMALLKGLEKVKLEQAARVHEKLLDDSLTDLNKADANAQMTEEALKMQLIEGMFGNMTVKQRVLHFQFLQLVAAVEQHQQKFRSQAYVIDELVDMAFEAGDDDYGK
T1 sequence (A2ARP9 whole entry): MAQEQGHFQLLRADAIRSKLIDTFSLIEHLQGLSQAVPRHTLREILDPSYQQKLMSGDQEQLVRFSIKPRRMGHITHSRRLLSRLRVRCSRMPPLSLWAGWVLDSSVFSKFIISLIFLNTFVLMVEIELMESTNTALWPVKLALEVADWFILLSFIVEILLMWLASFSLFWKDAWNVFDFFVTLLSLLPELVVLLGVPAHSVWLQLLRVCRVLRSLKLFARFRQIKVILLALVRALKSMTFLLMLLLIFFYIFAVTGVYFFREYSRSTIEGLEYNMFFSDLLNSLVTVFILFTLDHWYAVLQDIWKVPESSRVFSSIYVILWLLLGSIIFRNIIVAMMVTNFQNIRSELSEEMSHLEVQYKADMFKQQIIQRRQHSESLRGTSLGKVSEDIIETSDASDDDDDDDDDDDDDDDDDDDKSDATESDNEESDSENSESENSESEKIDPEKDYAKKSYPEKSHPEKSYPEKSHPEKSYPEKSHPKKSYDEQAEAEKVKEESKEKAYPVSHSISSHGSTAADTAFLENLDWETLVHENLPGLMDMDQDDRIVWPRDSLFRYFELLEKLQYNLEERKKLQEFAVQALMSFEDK
T1 sequence (Q80W99 whole entry): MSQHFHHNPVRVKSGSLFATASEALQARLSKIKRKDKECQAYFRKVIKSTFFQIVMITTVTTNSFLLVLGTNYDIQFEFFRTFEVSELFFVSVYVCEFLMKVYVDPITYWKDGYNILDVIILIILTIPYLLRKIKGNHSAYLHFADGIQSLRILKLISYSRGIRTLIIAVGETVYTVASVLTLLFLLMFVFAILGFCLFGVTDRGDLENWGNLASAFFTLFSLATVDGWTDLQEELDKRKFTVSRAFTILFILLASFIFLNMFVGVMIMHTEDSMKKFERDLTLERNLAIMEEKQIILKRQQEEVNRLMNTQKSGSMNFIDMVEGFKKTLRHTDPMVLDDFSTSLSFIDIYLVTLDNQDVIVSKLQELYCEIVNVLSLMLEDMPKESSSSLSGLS
T1 sequence (Q8BVN3 whole entry): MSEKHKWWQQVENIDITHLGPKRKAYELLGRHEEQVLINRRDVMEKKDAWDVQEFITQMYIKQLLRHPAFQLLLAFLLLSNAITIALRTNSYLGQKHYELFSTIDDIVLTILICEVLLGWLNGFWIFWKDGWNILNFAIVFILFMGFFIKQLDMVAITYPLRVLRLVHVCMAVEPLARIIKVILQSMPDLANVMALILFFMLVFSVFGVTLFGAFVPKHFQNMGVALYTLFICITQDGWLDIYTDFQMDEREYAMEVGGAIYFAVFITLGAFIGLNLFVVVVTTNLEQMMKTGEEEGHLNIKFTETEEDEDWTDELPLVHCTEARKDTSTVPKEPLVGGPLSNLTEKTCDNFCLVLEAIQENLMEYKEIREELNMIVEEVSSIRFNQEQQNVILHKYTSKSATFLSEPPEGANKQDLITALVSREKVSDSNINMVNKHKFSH

IC50: ~15 µM
SMILES: O=C(c1cccs1)c1no[n+]([O-])c1C(=O)c1cccs1 [HC-056456, 3,4-bis(2-thienylcarbonyl)-1,2,5-oxadiazole-2-ium-2-olate]

Reference: publication PMC2729922, “Pharmacological Targeting of Native CatSper Channels Reveals a Required Role in Maintenance of Sperm Hyperactivation” (PLoS ONE, 2009)
